From patent US20060069132A1, “Azolecarboxamide herbicides” (priority 2004, published 2006)

Assays:
barnyardgrass [1] = assay: Test A pre-/postemergence herbicide test; assay type: in vivo, Echinochloa crus-galli
How it was run: (§1)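 Both application timings were run together: directed soil spray over freshly planted seeds in sandy loam, and runoff spray onto 2–10 cm seedlings. Evaluation after ~10 days in greenhouse used a 0–100 visual scale versus untreated controls.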

large crabgrass [2] = assay: Test B pre-/postemergence herbicide test; assay type: in vivo, Digitaria sanguinalis; conditions: for Crabgrass, Large plant response rating: postemergence
How it was run: (§2)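 Greenhouse pot assay with simultaneous preemergence (treated seed) and postemergence (2–18 cm seedlings) applications of surfactant-containing, non-phytotoxic solvent formulations. Response scored visually 13–15 days later on a 0–100 scale, 100 meaning complete control.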

barnyardgrass [3] = assay: Test B flooded paddy test; assay type: in vivo, Echinochloa crus-galli; conditions: 1000 g ai/ha, scale 0 to 100 (0 no effect, 100 complete control)
How it was run: (§3)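 Treated at 2-leaf (paddy) or 1–4-leaf, 2–18 cm (postemergence); greenhouse 13–15 d; visual score vs control, 0 none to 100 complete control; dash = not tested.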

pigweed = assay: Test B pre-/postemergence herbicide test; assay type: in vivo, Amaranthus retroflexus; conditions: for Pigweed plant response rating: postemergence
How it was run: as §2

ducksalad = assay: Test B flooded paddy test; assay type: in vivo, Heteranthera limosa; conditions: 1000 g ai/ha, scale 0 to 100 (0 no effect, 100 complete control)
How it was run: as §3

redroot pigweed = assay: Test A pre-/postemergence herbicide test; assay type: in vivo, Amaranthus retroflexus
How it was run: as §1

cocklebur = assay: Test B pre-/postemergence herbicide test; assay type: in vivo, Xanthium strumarium; conditions: for Cocklebur plant response rating: postemergence
How it was run: (§4)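 Herbicidal effect was judged by eye on a 0–100 scale after plants stood 13 to 15 days in the greenhouse following pre- or postemergence treatment with surfactant-containing formulations.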

velvetleaf [4] = assay: Test A pre-/postemergence herbicide test; assay type: in vivo, Abutilon theophrasti
How it was run: as §1

rice [5] = assay: Test B flooded paddy test; assay type: in vivo, Oryza sativa; conditions: 1000 g ai/ha, scale 0 to 100 (0 no effect, 100 complete control)
How it was run: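 Greenhouse test; postemergence application to plants at 1–4 leaves (2–18 cm); paddy species at 2 leaves; evaluated visually vs controls at 13–15 days; scale 0–100 (100 = complete control).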

[6] = system: small flower umbrella sedge; assay: Test B flooded paddy test; assay type: in vivo, Cyperus difformis; conditions: 1000 g ai/ha, scale 0 to 100 (0 no effect, 100 complete control)
How it was run: as §3

wheat = assay: Test B postemergence herbicide test; assay type: in vivo, Triticum aestivum; parameters: key to Wheat plant response rating: 0 = no effect, 100 = complete control; conditions: postemergence
How it was run: (§5)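 Formulated test chemicals went onto postemergence plants measuring 2 to 18 cm, at one to four leaves. For the paddy assay, species had reached two leaves. Scoring took place 13–15 days later by eye, relative to untreated plants, using 0 for no effect up to 100 for full control.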

corn = assay: Test B pre-/postemergence herbicide test; assay type: in vivo, Zea mays; conditions: for Corn plant response rating: postemergence
How it was run: as §2

large crabgrass [7] = assay: Test A pre-/postemergence herbicide test; assay type: in vivo, Digitaria sanguinalis
How it was run: as §1

wild oat = assay: Test B postemergence herbicide test; assay type: in vivo, Avena fatua; conditions: postemergence
How it was run: as §5

giant foxtail [8] = assay: Test B pre-/postemergence herbicide test; assay type: in vivo, Setaria faberi; conditions: for Foxtail, Giant plant response rating: postemergence
How it was run: as §2

barnyardgrass [9] = assay: Test B pre-/postemergence herbicide test; assay type: in vivo, Echinochloa crus-galli; conditions: for Barnyardgrass plant response rating: postemergence
How it was run: as §4

rice [10] = assay: Test B pre-/postemergence herbicide test; assay type: in vivo, Oryza sativa; conditions: 0 = no effect, 100 = complete control, preemergence
How it was run: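 Species tested were Echinochloa crus-galli, Ipomoea coccinea, Xanthium strumarium and Oryza sativa, treated both before emergence and at the 1- to 4-leaf stage; rice and barnyardgrass were also tested under flooding at 2 leaves. Greenhouse incubation lasted 13–15 days before visual 0–100 scoring.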

Surinam grass = assay: Test B pre-/postemergence herbicide test; assay type: in vivo, Urochloa decumbens; conditions: for Surinam Grass plant response rating: postemergence
How it was run: as §2

morningglory [11] = assay: Test A pre-/postemergence herbicide test; assay type: in vivo, Ipomoea spp.
How it was run: as §1

velvetleaf [12] = assay: Test B pre-/postemergence herbicide test; assay type: in vivo, Abutilon theophrasti; conditions: for Velvetleaf plant response rating: postemergence
How it was run: as §2

giant foxtail [13] = assay: Test A pre-/postemergence herbicide test; assay type: in vivo, Setaria faberi
How it was run: as §1

morningglory [14] = assay: Test B pre-/postemergence herbicide test; assay type: in vivo, Ipomoea coccinea; conditions: for Morningglory plant response rating: postemergence
How it was run: as §4

blackgrass = assay: Test B postemergence herbicide test; assay type: in vivo, Alopecurus myosuroides; conditions: postemergence
How it was run: as §3

lambsquarters = assay: Test B pre-/postemergence herbicide test; assay type: in vivo, Chenopodium album; conditions: for Lambsquarters plant response rating: postemergence
How it was run: as §2

[15] = Postemergence, 500 g ai/ha, 0 to 100 scale, 0 no effect, 100 complete control
[16] = Postemergence, 2000 g ai/ha, 0 to 100 scale, 0 no effect, 100 complete control
[17] = Preemergence, 2000 g ai/ha, visual rating, 0 to 100 scale (0 no effect, 100 complete control)
[18] = preemergence, 500 g ai/ha, visual injury, 0 to 100 scale (0 no effect, 100 complete control)
[19] = 125 g ai/ha, 0 = no effect, 100 = complete control, preemergence
[20] = 125 g ai/ha, visual rating, scale 0 (no effect) to 100 (complete control)
[21] = 500 g ai/ha, visual rating, 0 = no effect, 100 = complete control, preemergence
[22] = 500 g ai/ha, scale 0 to 100, 0 is no effect, 100 is complete control

CCNC(=O)c1cncc(NC(=O)c2cc(C(C)(C)C)nn2CC)n1 [Compound 288]
Barnyardgrass plant response rating (barnyardgrass [1]; [15]): 5 | Plant response rating, Barnyardgrass (barnyardgrass [1]; [16]): 65 | Barnyardgrass plant response rating (barnyardgrass [1]; [17]): 75 | Barnyardgrass plant response rating (barnyardgrass [1]; [18]): 20 | Crabgrass, Large plant response rating (0 to 100 scale) (large crabgrass [2]; [19]): 0 | Crabgrass, Large plant response rating (large crabgrass [2]; [20]): 0 | Plant response rating, Crabgrass, Large (large crabgrass [2]; [21]): 0 | Crabgrass, Large plant response rating (large crabgrass [2]; [22]): 0 | Barnyardgrass plant response rating (barnyardgrass [3]): 0 | Pigweed plant response rating (0 to 100 scale) (pigweed; [19]): 0 | Pigweed plant response rating (pigweed; [20]): 10 | Plant response rating, Pigweed (pigweed; [21]): 90 | Pigweed plant response rating (pigweed; [22]): 20 | Ducksalad plant response rating (ducksalad): 0 | Pigweed plant response rating (redroot pigweed; [15]): 20 | Plant response rating, Pigweed (redroot pigweed; [16]): 40 | Pigweed plant response rating (redroot pigweed; [17]): 70 | Pigweed plant response rating (redroot pigweed; [18]): 25 | Cocklebur plant response rating (0 to 100 scale) (cocklebur; [19]): 0 | Cocklebur plant response rating (cocklebur; [20]): 0 | Plant response rating, Cocklebur (cocklebur; [21]): 0 | Cocklebur plant response rating (cocklebur; [22]): 0 | Velvetleaf plant response rating (velvetleaf [4]; [15]): 20 | Plant response rating, Velvetleaf (velvetleaf [4]; [16]): 20 | Velvetleaf plant response rating (velvetleaf [4]; [17]): 40 | Velvetleaf plant response rating (velvetleaf [4]; [18]): 10 | Rice plant response rating (rice [5]): 0 | Sedge, Umbrella plant response rating [6]: 60 | Wheat plant response rating (wheat; [20]): 20 | Wheat plant response rating (wheat; [22]): 30 | Corn plant response rating (0 to 100 scale) (corn; [19]): 0 | Corn plant response rating (corn; [20]): 0 | Plant response rating, Corn (corn; [21]): 0 | Corn plant response rating (corn; [22]): 0 | Crabgrass, Large plant response rating (large crabgrass [7]; [15]): 0 | Plant response rating, Crabgrass, Large (large crabgrass [7]; [16]): 15 | Crabgrass, Large plant response rating (large crabgrass [7]; [17]): 10 | Crabgrass, Large plant response rating (large crabgrass [7]; [18]): 0 | Oat, Wild plant response rating (wild oat; [20]): 20 | Oat, Wild plant response rating (wild oat; [22]): 40 | Foxtail, Giant plant response rating (0 to 100 scale) (giant foxtail [8]; [19]): 0 | Foxtail, Giant plant response rating (giant foxtail [8]; [20]): 0 | Plant response rating, Foxtail, Giant (giant foxtail [8]; [21]): 10 | Foxtail, Giant plant response rating (giant foxtail [8]; [22]): 30 | Barnyardgrass plant response rating (0 to 100 scale) (barnyardgrass [9]; [19]): 0 | Barnyardgrass plant response rating (barnyardgrass [9]; [20]): 0 | Plant response rating, Barnyardgrass (barnyardgrass [9]; [21]): 70 | Barnyardgrass plant response rating (barnyardgrass [9]; [22]): 0 | Rice plant response rating (0 to 100 scale) (rice [10]; 125 g ai/ha): 0 | Plant response rating, Rice (rice [10]; 500 g ai/ha, visual rating): 70 | Surinam Grass plant response rating (0 to 100 scale) (Surinam grass; [19]): 0 | Surinam Grass plant response rating (Surinam grass; [20]): 0 | Plant response rating, Surinam Grass (Surinam grass; [21]): 0 | Surinam Grass plant response rating (Surinam grass; [22]): 0 | Morningglory plant response rating (morningglory [11]; [15]): 20 | Plant response rating, Morningglory (morningglory [11]; [16]): 20 | Morningglory plant response rating (morningglory [11]; [17]): 30 | Morningglory plant response rating (morningglory [11]; [18]): 5 | Velvetleaf plant response rating (velvetleaf [12]; [20]): 10 | Plant response rating, Velvetleaf (velvetleaf [12]; [21]): 0 | Velvetleaf plant response rating (velvetleaf [12]; [22]): 20 | Foxtail, Giant plant response rating (giant foxtail [13]; [15]): 0 | Plant response rating, Foxtail, Giant (giant foxtail [13]; [16]): 10 | Foxtail, Giant plant response rating (giant foxtail [13]; [17]): 75 | Foxtail, Giant plant response rating (giant foxtail [13]; [18]): 15 | Morningglory plant response rating (0 to 100 scale) (morningglory [14]; [19]): 0 | Morningglory plant response rating (morningglory [14]; [20]): 0 | Plant response rating, Morningglory (morningglory [14]; [21]): 0 | Morningglory plant response rating (morningglory [14]; [22]): 0 | Blackgrass plant response rating (blackgrass; [20]): 20 | Blackgrass plant response rating (blackgrass; [22]): 20 | Lambsquarters plant response rating (0 to 100 scale) (lambsquarters; [19]): 0 | Lambsquarters plant response rating (lambsquarters; [20]): 0 | Plant response rating, Lambsquarters (lambsquarters; [21]): 90 | Lambsquarters plant response rating (lambsquarters; [22]): 30
